Results taken from patent US8937089B2, “Synergistic mixtures of anthranilamide invertebrate pest control agents” (priority 2004, dated 2015).
Where two headings read alike, the source gives them in different places.

Legend:
Experiment in all cases: whole plant or invertebrate
Format in all cases: in vivo
[1] = test system: corn planthopper (Peregrines maidis)
Procedure, shortened: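 Contact/systemic test on corn planthopper: 10–20 nymphs (18- to 20-day-old) released onto young maize plants 1 h after spraying, with three replicate units per treatment. Spray solution was acetone/water 10:90 containing 300 ppm non-ionic spreader; units kept 6 days at 19-21° C., 50-70% RH.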

[2] = test system: potato leafhopper (Empoasca fabae Harris)
Procedure, shortened: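 Contact and/or systemic test: five adult leafhoppers aged 18–21 days were released onto Longio bean plants 1 h after spraying. The spray was 1 mL per unit in acetone/water (10:90) with 300 ppm non-ionic surfactant, run in triplicate. Plants were kept 6 days in a growth chamber at 19–21 °C and 50–70% humidity.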

[3] = test system: green peach aphid (Myzus persicae Sulzer)
Procedure, shortened: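 Compounds formulated in 10% acetone/water with 300 ppm X-77 surfactant were atomized onto aphid-infested radish seedlings, with three replicates per treatment. Infestation was 30–40 aphids transferred on excised leaf pieces, covering contact and systemic exposure. Test units stayed 6 days in a growth chamber at 19–21 °C and 50–70% relative humidity.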

[4] = test system: western flower thrip (Frankliniella occidentalis Pergande)
Procedure, shortened: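 Bean plants aged 5–7 days received a spray of test solution (10% acetone, 90% water, 300 ppm surfactant), in triplicate. Adult thrips (22–27 per unit) were introduced once the plants had dried for 1 h. Incubation lasted 7 days at 25° C and 45–55% RH.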

[5] = test system: cotton melon aphid (Aphis gossypii Glover)
Procedure, shortened: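 Sprays in acetone–water with 300 ppm non-ionic surfactant, at ppm concentrations, applied to aphid-infested (30–40 per plant) 6–7-day cotton, in triplicate. Evaluation after 6 days in a growth chamber at 19–21 °C and 50–70% relative humidity, covering contact and/or systemic action.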

[6] = test system: silverleaf whitefly (Bemisia argentifolii Bellows and Perring)
Procedure, shortened: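 Whitefly-egg-infested 12–14-day-old cotton plants sprayed with compound in 10% acetone/90% water plus 300 ppm non-ionic surfactant, in triplicate. Plants then held 13 days at 28 °C and 50–70% relative humidity before mortality assessment.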

[7] = rate 1 ppm, single compound, spray, 7 days
[8] = rate 500 ppm, single compound, spray, 7 days

CNC(=O)c1cc(Cl)cc(C)c1NC(=O)c1cc(Br)nn1-c1ncccc1Cl [Compound 1, 3-bromo-N-[4-chloro-2-methyl-6-[(methylamino)carbonyl]phenyl]-1-(3-chloro-2-pyridinyl)-1H-pyrazole-5-carboxamide]
mortality at 20 ppm ([1]; Corn Plant Hopper, rate 20 ppm, read-out: % mortality (obs)): 15% | mortality at 100 ppm ([1]; Corn Plant Hopper, rate 100 ppm, read-out: % mortality (obs)): 19% | mortality at 500 ppm ([1]; Corn Plant Hopper, rate 500 ppm, read-out: % mortality (obs)): 28% | mortality at 5 ppm ([1]; Table 5A, Compound 1 5 ppm, read-out: % Mortality (observed)): 6% | mortality at 50 ppm ([1]; Table 5A, Compound 1 50 ppm, read-out: % Mortality (observed)): 9% | mortality at 150 ppm ([1]; Table 5A, Compound 1 150 ppm, read-out: % Mortality (observed)): 28% | mortality at 0.4 ppm ([2]; Empoasca fabae, Table 4A, Compound 1 0.4 ppm, read-out: % Mortality (observed)): 0% | mortality at 1.4 ppm ([2]; Empoasca fabae, Table 4A, Compound 1 1.4 ppm, read-out: % Mortality (observed)): 0% | mortality at 4.6 ppm ([2]; Empoasca fabae, Table 4A, Compound 1 4.6 ppm, read-out: % Mortality (observed)): 0% | mortality at 4 ppm ([2]; Empoasca fabae, rate 4 ppm, alone, read-out: % mortality (obs)): 23% | mortality at 14 ppm ([2]; Empoasca fabae, rate 14 ppm, alone, read-out: % mortality (obs)): 37% | mortality at 50 ppm ([2]; Empoasca fabae, rate 50 ppm, alone, read-out: % mortality (obs)): 54% | mortality at 10 ppm ([3]; Myzus persicae, in Raphanus sativus, Green Peach Aphid, rate 10 ppm, read-out: % mortality (obs)): 24% | mortality at 20 ppm ([3]; Myzus persicae, in Raphanus sativus, Green Peach Aphid, rate 20 ppm, read-out: % mortality (obs)): 35% | mortality at 40 ppm ([3]; Myzus persicae, in Raphanus sativus, Green Peach Aphid, rate 40 ppm, read-out: % mortality (obs)): 36% | mortality at 2.1 ppm ([3]; Myzus persicae, in Raphanus sativus, Table 7A, Compound 1 2.1 ppm, read-out: % Mortality (observed)): 5% | mortality at 3.9 ppm ([3]; Myzus persicae, in Raphanus sativus, Table 7A, Compound 1 3.9 ppm, read-out: % Mortality (observed)): 2% | mortality at […] ([3]; Myzus persicae, in Raphanus sativus, Table 7A, Compound 1 7.5 ppm, read-out: % Mortality (observed)): 6% | mortality at 10 ppm ([4]; Frankliniella occidentalis, 168 h, rate 10 ppm, single compound, spray, 7 days, read-out: % mortality (obs)): 44% | mortality at 50 ppm ([4]; Frankliniella occidentalis, 168 h, rate 50 ppm, single compound, spray, 7 days, read-out: % mortality (obs)): 49% | mortality at 100 ppm ([4]; Frankliniella occidentalis, 168 h, rate 100 ppm, single compound, spray, 7 days, read-out: % mortality (obs)): 46% | mortality at 8 ppm ([4]; Frankliniella occidentalis, Table 3A, Compound 1 8 ppm, read-out: % Mortality (observed)): 3% | mortality at 25 ppm ([4]; Frankliniella occidentalis, Table 3A, Compound 1 25 ppm, read-out: % Mortality (observed)): 17% | mortality at 81 ppm ([4]; Frankliniella occidentalis, Table 3A, Compound 1 81 ppm, read-out: % Mortality (observed)): 30% | mortality at 0.8 ppm ([5]; Aphis gossypii, Table 6A, Compound 1 0.8 ppm, read-out: % Mortality (observed)): 12% | mortality at […] ([5]; Aphis gossypii, Table 6A, Compound 1 4.5 ppm, read-out: % Mortality (observed)): 32% | mortality at 25 ppm ([5]; Aphis gossypii, Table 6A, Compound 1 25 ppm, read-out: % Mortality (observed)): 23% | mortality at 4 ppm ([5]; Aphis gossypii, rate 4 ppm, read-out: % mortality (obs)): 25% | mortality at 20 ppm ([5]; Aphis gossypii, rate 20 ppm, read-out: % mortality (obs)): 41% | mortality at 100 ppm ([5]; Aphis gossypii, rate 100 ppm, read-out: % mortality (obs)): 49% | mortality at 8 ppm ([6]; Bemisia argentifolii, in Gossypium hirsutum, Table 2A, Compound 1 8 ppm, read-out: % Mortality (observed)): 4% | mortality at 10 ppm ([6]; Bemisia argentifolii, in Gossypium hirsutum, Table 2A, Compound 1 10 ppm, read-out: % Mortality (observed)): 1% | mortality at 6 ppm ([6]; Bemisia argentifolii, in Gossypium hirsutum, Table 2B, rate 6 ppm, read-out: % mortality (obs)): 3% | mortality at 8 ppm ([6]; Bemisia argentifolii, in Gossypium hirsutum, Table 2B, rate 8 ppm, read-out: % mortality (obs)): 3% | mortality at 10 ppm ([6]; Bemisia argentifolii, in Gossypium hirsutum, Table 2B, rate 10 ppm, read-out: % mortality (obs)): 5%

COC(=O)N(C(=O)N1CO[C@@]2(C(=O)OC)Cc3cc(Cl)ccc3C2=N1)c1ccc(OC(F)(F)F)cc1 [Indoxacarb]
% mortality (obs) ([1]; Corn Plant Hopper, rate 50 ppm): 3% | % mortality (obs) ([1]; Corn Plant Hopper, rate 500 ppm): 4% | % mortality (obs) ([1]; Corn Plant Hopper, rate 3000 ppm): 18% | % mortality (obs) ([2]; rate 0.5 ppm, alone): 33% | % mortality (obs) ([2]; rate 1 ppm, alone): 20% | % mortality (obs) ([2]; rate 2 ppm, alone): 27% | % mortality (obs) ([3]; Green Peach Aphid, rate 10 ppm): 9% | % mortality (obs) ([3]; Green Peach Aphid, rate 20 ppm): 7% | % mortality (obs) ([3]; Green Peach Aphid, rate 30 ppm): 8% | % mortality (obs) [4, 7]: 50% | % mortality (obs) [4, 8]: 50% | % mortality (obs) ([4]; rate 3000 ppm, single compound, spray, 7 days): 50% | % mortality (obs) ([5]; rate 10 ppm): 16% | % mortality (obs) ([5]; rate 20 ppm): 28% | % mortality (obs) ([5]; rate 30 ppm): 34% | % mortality (obs) ([6]; Table 2B, rate 1 ppm): 0% | % mortality (obs) ([6]; Table 2B, rate 3 ppm): 0% | % mortality (obs) ([6]; Table 2B, rate 10 ppm): 0%

CNC(=O)O/N=C(\SC)C(=O)N(C)C [Oxamyl]
% mortality (obs) ([1]; Corn Plant Hopper, rate 0.08 ppm): 2% | % mortality (obs) ([1]; Corn Plant Hopper, rate 0.16 ppm): 5% | % mortality (obs) ([1]; Corn Plant Hopper, rate 0.2 ppm): 6% | % mortality (obs) ([2]; rate 0.1 ppm, alone): 20% | % mortality (obs) ([2]; rate 2 ppm, alone): 20% | % mortality (obs) ([2]; rate 100 ppm, alone): 100% | % mortality (obs) ([3]; Green Peach Aphid, rate 40 ppm): 8% | % mortality (obs) ([3]; Green Peach Aphid, rate 70 ppm): 18% | % mortality (obs) ([3]; Green Peach Aphid, rate 100 ppm): 35% | % mortality (obs) [4, 7]: 30% | % mortality (obs) ([4]; rate 50 ppm, single compound, spray, 7 days): 40% | % mortality (obs) [4, 8]: 100% | % mortality (obs) ([5]; rate 1 ppm): 29% | % mortality (obs) ([5]; rate 10 ppm): 37% | % mortality (obs) ([5]; rate 1000 ppm): 100% | % mortality (obs) ([6]; Table 2B, rate 0.1 ppm): 2% | % mortality (obs) ([6]; Table 2B, rate 0.3 ppm): 0% | % mortality (obs) ([6]; Table 2B, rate 1 ppm): 1%
